Literature values in patent publication US5981578A (priority 1997, dated 1999).

Settings: in just a few days

O=C1O[C@H]([C@@H](O)CO)C(O)=C1O [Ascorbic acid, ascorbic acid]
color development of aqueous preparations: develop colors, progressively, from light yellow to orange dark brown
